Source: paper PMC8007111, “Novel Potent Muscarinic Receptor Antagonists: Investigation on the Nature of Lipophilic Substituents in the 5- and/or 6-Positions of the 1,4-Dioxane Nucleus” (Journal of Medicinal Chemistry, 2020)

How the values were obtained:
[1] = system: MSCs from mouse bone marrow; test: Carbachol-induced MSC viability (MTS assay); assay type: cell-based; conditions: pre-incubation 1 h, then carbachol 10^–10 M for 24 h
Method: It is well established that bone marrow MSC behavior is influenced by a variety of signaling systems. In context, cholinergic intramural stimuli and, in particular, muscarinic signals orchestrate MSCs viability and commitment.[11],[12] Considering also the pluripotent MSC nature and their contribution to bone, blood, and systemic homeostasis,[53] viability studies on MSCs were performed to determine the functional profile of 3b, the most interesting compound in this series. […] Successively, the efficacy of 3b in contrasting cell viability induced by the well-known mAChR agonist carbachol was evaluated. […] Further research on the intracellular mechanistic outcomes of 3b on MSCs remains mandatory.
The in vitro studies were performed by using bone marrow MSCs as a model. Male BALB/c mice (Harlan Italy SrL, Milano, Italy) (8 weeks old; body weight ∼24.5 g; n = 4) were kept in a laminar-flow cage in a standardized environmental condition. Food (Harlan, Italy), and water was supplied ad libitum. Mice were sacrificed by CO2 narcosis and cervical dislocation in accordance with the recommendations of the Italian Ethical Committee and under the supervision of authorized investigators. Long bones (femurs and tibiae) were dissected and cleaned from skin, muscle, and connective tissues as much as possible. Bones were placed in a culture dish containing sterile PBS. Then, the bone cavity was flushed in DMEM with a syringe in order to collect the bone marrow cells into a 50 mL sterile tube. […] After 2 weeks of initiating culture, cells were washed with PBS, detached by trypsinization, counted, and plated at the density of 5,000 cells/well in 96 culture plates (Costar Corp., Milano, Italy) in DMEM containing 10% HIFCS, penicillin, and streptomycin.
MSCs were treated with compound 3b (from 10^–4 to 10^–10 M) for 24 h. […] At the end of each procedure, the MSCs viability was measured by MTS assay. […] The quantity of the formazan product was directly proportional to the number of living cells in culture. The colored formazan was measured by reading the absorbance at 490 nm using a […] plate reader.

hM5 mAChR = biological target: T1, hM5 mAChR (Homo sapiens, UniProt P08912); test: [3H]NMS inhibition radioligand binding, hM5 in CHO-K1 cell membranes; conditions: [3H]NMS, CHO-K1 cell membranes; mean ± S.E.M.
T1 construct: expressed in transfected cells; host or cells: CHO-K1 (membrane preparation)
T1 sequence (P08912 1-532): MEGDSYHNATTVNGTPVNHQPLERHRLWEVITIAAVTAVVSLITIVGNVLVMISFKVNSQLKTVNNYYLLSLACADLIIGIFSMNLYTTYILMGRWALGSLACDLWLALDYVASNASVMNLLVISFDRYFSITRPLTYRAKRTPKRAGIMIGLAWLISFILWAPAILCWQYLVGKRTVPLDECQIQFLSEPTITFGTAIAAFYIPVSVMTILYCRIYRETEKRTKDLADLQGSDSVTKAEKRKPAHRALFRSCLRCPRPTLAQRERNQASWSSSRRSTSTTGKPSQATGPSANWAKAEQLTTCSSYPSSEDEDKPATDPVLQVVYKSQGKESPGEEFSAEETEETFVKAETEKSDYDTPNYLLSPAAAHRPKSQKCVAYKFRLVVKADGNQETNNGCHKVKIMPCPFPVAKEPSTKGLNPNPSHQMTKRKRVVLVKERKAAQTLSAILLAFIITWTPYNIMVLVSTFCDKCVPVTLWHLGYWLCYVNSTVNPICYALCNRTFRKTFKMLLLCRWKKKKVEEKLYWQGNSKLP

Q: `C[N+](C)(C)C[C@@H]1COC[C@](c2ccccc2)(C2CCCCC2)O1.[I-]` (relative stereo) [3b, 1-((2R*,6R*)-6-Cyclohexyl-6-phenyl-1,4-dioxan-2-yl)-N,N,N-trimethylmethanaminium Iodide] was tested. Which “effect on carbachol-induced MSC viability” value [1] did it give?
A: The value was “able to contrast the increase of carbachol-induced MSC viability”.

Q: And the “pKi hM5” value (hM5 mAChR)?
A: The value was 8.41 ± 0.1.
